In one assay the target is T1, Human SSAO/VAP-1 (Homo sapiens, UniProt Q16853).
T1 sequence (Q16853 1-763): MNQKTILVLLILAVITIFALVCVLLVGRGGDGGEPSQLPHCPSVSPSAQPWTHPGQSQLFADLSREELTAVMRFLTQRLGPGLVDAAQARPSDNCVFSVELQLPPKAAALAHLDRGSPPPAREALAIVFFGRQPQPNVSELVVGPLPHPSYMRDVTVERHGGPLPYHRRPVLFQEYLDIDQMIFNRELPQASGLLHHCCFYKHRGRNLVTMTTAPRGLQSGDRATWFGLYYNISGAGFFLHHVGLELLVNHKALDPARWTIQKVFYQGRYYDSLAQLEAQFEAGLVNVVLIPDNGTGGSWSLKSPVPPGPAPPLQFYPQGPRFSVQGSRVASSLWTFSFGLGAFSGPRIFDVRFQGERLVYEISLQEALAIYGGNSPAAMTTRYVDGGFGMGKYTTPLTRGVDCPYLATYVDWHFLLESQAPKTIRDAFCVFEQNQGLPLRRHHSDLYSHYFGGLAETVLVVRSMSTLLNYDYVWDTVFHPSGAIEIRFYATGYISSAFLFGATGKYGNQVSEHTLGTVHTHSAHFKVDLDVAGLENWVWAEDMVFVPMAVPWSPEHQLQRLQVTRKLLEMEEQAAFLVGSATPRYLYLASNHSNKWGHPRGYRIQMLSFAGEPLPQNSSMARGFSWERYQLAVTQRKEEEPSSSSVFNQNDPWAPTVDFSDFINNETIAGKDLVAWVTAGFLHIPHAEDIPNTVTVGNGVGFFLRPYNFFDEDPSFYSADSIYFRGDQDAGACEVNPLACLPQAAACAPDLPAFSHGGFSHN
Put plainly: Inhibition of amine oxidase activity of purified human SSAO/VAP-1 (Amplex Red). It is filed as biochemical. The following applies: purified human SSAO, 30 min at 37° C. preincubation, 300 μM benzylamine. As for the experimental part:
(§1) To measure the SSAO activity, adipocyte homogenate (0.5 mg/mL) or adipocytes (adhering cells) containing 0.5 mM pargyline, or purified human SSAO was incubated in 0.1 M sodium phosphate buffer pH 7.4 with varying concentrations of test compounds for 30 min at 37° C. The homogenate was then incubated at 37° C. with 60 μM Amplex® Red, 0.75 U/mL HRP and 40 μM benzylamine (mouse SSAO) or 300 μM benzylamine (human SSAO) and the formation of resorufin was measured (excitation range 530-560 nm and emission at 590 nm) every 10 min in either a Tecan Infinite 200 or a BMG plate reader. The IC50 values were estimated using Graphpad Prism software. The IC50 is an estimation of the concentration of the test compound to inhibit the amine oxidase activity of SSAO/VAP-1 by 50%. The IC50 values of certain invention compounds are included in Table 1.

Another assay has as its target T2, Human MAO-B (Homo sapiens, UniProt P27338).
T2 sequence (P27338 1-520): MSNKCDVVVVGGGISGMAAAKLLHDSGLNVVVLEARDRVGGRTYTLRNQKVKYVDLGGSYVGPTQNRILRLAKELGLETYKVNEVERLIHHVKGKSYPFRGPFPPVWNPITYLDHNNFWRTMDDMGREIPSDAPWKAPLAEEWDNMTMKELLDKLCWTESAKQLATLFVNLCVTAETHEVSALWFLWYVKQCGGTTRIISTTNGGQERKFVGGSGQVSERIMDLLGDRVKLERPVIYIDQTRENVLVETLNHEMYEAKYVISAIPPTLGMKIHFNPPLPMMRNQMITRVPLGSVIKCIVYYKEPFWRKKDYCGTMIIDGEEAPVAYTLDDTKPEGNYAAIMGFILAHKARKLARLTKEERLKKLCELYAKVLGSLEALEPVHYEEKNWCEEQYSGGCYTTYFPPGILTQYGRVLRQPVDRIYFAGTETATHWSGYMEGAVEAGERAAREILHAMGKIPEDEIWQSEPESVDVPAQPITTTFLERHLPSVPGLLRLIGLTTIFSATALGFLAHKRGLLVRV
Put plainly: Inhibition of recombinant MAO-B (Amplex Red). It is filed as biochemical. To be noted: 30 min at 37° C. preincubation, 50 μM benzylamine. As for the experimental part:
Recombinant MAO-B was incubated in 0.1 M sodium phosphate buffer pH 7.4 with varying concentration of test compounds for 30 min at 37° C. The homogenate/protein was then incubated at 37° C. with […] Amplex® Red, 0.75 U/ml HRP and 40 μM benzylamine (mouse SSAO), 300 μM benzylamine (human SSAO), 100 μM tyramine (MAO-A) or 50 μM benzylamine (MAO-B) and the formation of resorufin was measured (excitation range 530-560 nm and emission at 590 nm) every 5 min in either a Tecan Infinite 200 or a BMG Fluorostar Optima platereader. IC50 were estimated using Graphpad Prism software.

The next assay addresses T3, Mouse SSAO/VAP-1 (Mus musculus, UniProt O70423).
T3 construct: Adipocytes were used as an SSAO source either as adherent cells or as a homogenate; endogenous in cells; host or cells: 3T3-L1 murine fibroblasts (ATCC) differentiated into adipocytes
T3 sequence (O70423 1-765): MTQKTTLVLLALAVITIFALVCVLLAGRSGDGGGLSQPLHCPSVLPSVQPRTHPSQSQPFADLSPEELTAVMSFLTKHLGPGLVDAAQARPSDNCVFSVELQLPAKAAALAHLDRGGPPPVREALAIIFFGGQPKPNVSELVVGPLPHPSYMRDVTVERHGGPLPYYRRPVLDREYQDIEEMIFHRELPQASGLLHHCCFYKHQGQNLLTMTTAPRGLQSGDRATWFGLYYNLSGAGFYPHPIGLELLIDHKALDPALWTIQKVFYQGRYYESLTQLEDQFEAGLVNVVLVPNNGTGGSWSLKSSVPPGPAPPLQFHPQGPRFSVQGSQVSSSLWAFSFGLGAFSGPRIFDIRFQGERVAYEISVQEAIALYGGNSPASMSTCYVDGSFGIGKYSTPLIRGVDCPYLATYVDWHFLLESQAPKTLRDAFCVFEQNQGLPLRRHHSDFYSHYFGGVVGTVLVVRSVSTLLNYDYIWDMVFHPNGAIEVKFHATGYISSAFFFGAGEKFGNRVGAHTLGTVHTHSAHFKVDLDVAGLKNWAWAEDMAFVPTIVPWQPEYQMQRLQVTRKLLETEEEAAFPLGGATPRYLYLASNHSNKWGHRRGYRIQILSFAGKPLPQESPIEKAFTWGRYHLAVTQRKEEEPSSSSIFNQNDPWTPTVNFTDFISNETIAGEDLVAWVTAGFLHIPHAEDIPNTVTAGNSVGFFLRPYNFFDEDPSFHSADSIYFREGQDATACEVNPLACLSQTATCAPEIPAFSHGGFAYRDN
Put plainly: Inhibition of amine oxidase activity of mouse SSAO/VAP-1 (3T3-L1 adipocytes, Amplex Red). It is filed as biochemical. To be noted: 3T3-L1 adipocyte SSAO, 30 min at 37° C. preincubation, 40 μM benzylamine.
Description: 3T3-L1 Murine fibroblasts were purchased from the American Type Culture Collection (ATCC, Rockville, Md.). Dulbecco's Modified Eagle Medium (DMEM) and fetal calf serum (FCS), antibiotics and Amplex® Red were obtained from Invitrogen (Carlsbad, Calif.). Tissue culture plastics and black clear-bottom 96 well plates were from BD Falcon (Bedford, Mass.). Bicinchoninic acid (BCA) reagent was from Pierce (Rockford, Ill.). All other materials were obtained from Sigma (St. Louis, Mo.).
3T3-L1 Fibroblasts were cultured in DMEM supplemented with 10% heat-inactivated FCS, 2 mM L-glutamine, 100 U/L penicillin and 100 μg/L streptomycin at 37° C. in 5% CO2. For differentiation into adipocytes, fibroblasts were cultured in DMEM with FCS for 1 or 2 days postconfluence, after which the cells were cultured for 3 days in DMEM containing 10% FCS, 350 nM insulin, 0.5 mM 3-isobutyl-1-methylxanthine, 250 nM dexamethasone, and 400 nM biotin and for 3 days in DMEM containing 10% FCS and 350 nM insulin. After differentiation, adipocytes were maintained in DMEM supplemented with 10% FCS. Adipocytes were used for experiments 8 to 11 days after the onset of differentiation, and the medium was renewed 2 or 3 days prior to each experiment. For culturing in black clear-bottom 96-well plates, cells were seeded at a 1:1 cell surface ratio, and differentiation was initiated 4 days postseeding. Cells were used between days 6-12 post-differentiation and between passages 7 and 20. Adipocytes were used as an SSAO source either as adherent cells or as a homogenate.
To prepare homogenate, 10 cm dishes of adipocytes were washed with HES buffer (20 mM HEPES, 1 mM EDTA, 250 mM sucrose, pH 7.4) and scraped in HES buffer containing 10 μg/mL leupeptin, 10 μM pepstatin and 1 mM PMSF. Cells were lysed by passage through a 23 G needle followed by passage through a 27 G needle. The lysate was spun at 500 g for 5 min and fat was removed. Protein concentration of the supernatant was measured using a BCA assay according to the manufacturer's instructions. The homogenate was stored at −80° C. until needed.
as §1

A further assay deals with T4, rat SSAO/VAP-1 (Rattus norvegicus, UniProt O08590).
T4 sequence (O08590 1-763): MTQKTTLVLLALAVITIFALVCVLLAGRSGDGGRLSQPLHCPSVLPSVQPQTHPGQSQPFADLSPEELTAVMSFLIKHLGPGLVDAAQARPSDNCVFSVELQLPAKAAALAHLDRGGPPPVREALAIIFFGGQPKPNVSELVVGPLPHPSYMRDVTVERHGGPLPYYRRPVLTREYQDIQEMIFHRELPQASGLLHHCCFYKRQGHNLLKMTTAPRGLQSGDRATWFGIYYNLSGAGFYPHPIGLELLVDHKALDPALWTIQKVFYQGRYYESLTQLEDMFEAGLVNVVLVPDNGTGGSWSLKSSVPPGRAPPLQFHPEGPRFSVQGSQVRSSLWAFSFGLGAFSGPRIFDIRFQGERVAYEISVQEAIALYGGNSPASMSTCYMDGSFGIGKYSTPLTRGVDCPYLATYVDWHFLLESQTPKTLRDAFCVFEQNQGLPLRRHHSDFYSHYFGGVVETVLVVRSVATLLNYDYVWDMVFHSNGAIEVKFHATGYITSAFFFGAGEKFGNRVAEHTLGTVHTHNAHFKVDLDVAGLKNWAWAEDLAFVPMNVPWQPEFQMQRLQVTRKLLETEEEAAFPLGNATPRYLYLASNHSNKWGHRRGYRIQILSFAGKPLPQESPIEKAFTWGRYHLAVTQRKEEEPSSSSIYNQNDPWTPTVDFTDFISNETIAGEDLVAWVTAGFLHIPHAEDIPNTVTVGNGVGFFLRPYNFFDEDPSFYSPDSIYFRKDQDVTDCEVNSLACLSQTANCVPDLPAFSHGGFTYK
The following applies: reports in the literature; cited from earlier work.

Where a name gives a salt, the structure may show the parent alone.

Regarding `NC/C=C(/F)COc1ccc(C(=O)NCc2ccccc2)cc1` [(E)-4-(4-Amino-2-fluorobut-2-enyloxy)-N-benzylbenzamide hydrochloride], the IC50 on Human SSAO/VAP-1, on Human MAO-B and at Mouse SSAO/VAP-1 was under 1000 nM each time.

In the case of `NC/C(=C/Cl)c1ccccc1` [MDL72274], the “Selectivity for rat SSAO/VAP-1 compared to MAO-A and MAO-B” value at rat SSAO/VAP-1 was “selectively inhibiting rat SSAO/VAP-1”.

A word on the IC50: it is the point on the concentration scale where inhibition reaches its midpoint.

(Values after patent US8426587B2, “Haloallylamine inhibitors of SSAO/VAP-1 and uses therefor” (Pharmaxis Ltd., priority 2007, dated 2013).)
